Assay [1] deals with T1, Histone-lysine N-methyltransferase NSD2 (Homo sapiens, UniProt O96028).
T1 sequence (O96028 whole entry): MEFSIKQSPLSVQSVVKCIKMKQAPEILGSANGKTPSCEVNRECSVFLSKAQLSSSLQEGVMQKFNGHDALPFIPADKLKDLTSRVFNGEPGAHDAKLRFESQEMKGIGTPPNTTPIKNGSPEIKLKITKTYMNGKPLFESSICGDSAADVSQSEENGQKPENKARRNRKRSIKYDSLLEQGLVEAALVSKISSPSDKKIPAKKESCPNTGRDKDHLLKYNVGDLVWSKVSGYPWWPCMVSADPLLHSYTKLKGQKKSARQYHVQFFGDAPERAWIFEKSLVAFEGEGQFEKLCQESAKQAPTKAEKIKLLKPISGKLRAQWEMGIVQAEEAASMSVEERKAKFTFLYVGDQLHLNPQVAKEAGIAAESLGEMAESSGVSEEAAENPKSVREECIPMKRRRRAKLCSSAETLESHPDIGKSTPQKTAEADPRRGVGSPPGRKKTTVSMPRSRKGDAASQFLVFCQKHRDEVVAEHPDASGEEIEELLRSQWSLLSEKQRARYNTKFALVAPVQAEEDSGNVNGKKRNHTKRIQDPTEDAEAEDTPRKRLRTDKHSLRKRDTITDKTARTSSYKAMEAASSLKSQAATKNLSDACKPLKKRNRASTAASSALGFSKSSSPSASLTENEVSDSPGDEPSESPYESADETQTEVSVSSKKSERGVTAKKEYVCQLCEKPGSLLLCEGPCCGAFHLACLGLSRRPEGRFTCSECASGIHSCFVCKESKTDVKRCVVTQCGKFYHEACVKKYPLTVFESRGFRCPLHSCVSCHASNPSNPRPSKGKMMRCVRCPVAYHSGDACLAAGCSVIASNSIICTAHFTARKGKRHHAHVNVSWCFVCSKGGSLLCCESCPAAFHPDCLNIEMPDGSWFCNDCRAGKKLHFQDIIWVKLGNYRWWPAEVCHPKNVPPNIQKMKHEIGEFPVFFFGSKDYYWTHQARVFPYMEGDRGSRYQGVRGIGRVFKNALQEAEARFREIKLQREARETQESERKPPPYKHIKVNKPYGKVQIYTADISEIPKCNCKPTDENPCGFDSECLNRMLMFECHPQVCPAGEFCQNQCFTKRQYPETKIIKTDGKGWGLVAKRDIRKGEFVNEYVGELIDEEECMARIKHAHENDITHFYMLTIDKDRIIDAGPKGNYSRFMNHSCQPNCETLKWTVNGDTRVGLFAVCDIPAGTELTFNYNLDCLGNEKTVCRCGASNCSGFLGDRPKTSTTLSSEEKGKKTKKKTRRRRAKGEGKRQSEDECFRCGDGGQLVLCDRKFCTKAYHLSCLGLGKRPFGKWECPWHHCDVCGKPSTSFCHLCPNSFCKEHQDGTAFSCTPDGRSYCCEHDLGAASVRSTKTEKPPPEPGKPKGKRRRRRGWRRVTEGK
It counts as biochemical.

Assay [2] in a line: inhibitors of SNCA 5'UTR-driven reporter translation, confirmation, H4 neuroglioma cells, luminescence (AID 1988). It counts as functional, cell-based.
Assay [3] addresses Intestinal-type alkaline phosphatase (Mus musculus, UniProt P24822). Briefly: PubChem AID 488874. It is filed as functional.
The nature of assay [4]: Counterscreen for AddAB inhibitors: absorbance-based bacterial cell-based high throughput dose response assay for inhibitors of bacterial viability. [Related pubchem assays (depositor defined):AID435030, AID449728, AID449731, AID488942, AID488955, AID488956]. It is filed as functional.
For another assay, the target named is Paired box protein Pax-8 (Homo sapiens, UniProt Q06710). Briefly: inhibitors of PAX8-driven TPO luciferase reporter, dose response, RMG-I cells, cherry-pick (AID 687027).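 Also: luciferase reporter driven by Pax8 target thyroperoxidase promoter measured by SteadyGlo luminescence.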 It is filed as functional, cell-based. A general note: Reporter assays use an easily measured gene product as a stand-in for the process of interest.
For assay [5], the target named is Intestinal-type alkaline phosphatase (Homo sapiens, UniProt P09923). Description: human intestinal alkaline phosphatase activators, dose response, biochemical, luminescence, uHTS hits (AID 463120). It counts as functional.
Assay [6] has as its target T2, Sentrin-specific protease 8 (Homo sapiens, UniProt Q96LD8).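 Also: kinetic enzyme assay of SENP8 cleaving a Nedd8 protein substrate, dose-response confirmation of screening hits.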
T2 sequence (Q96LD8 whole entry): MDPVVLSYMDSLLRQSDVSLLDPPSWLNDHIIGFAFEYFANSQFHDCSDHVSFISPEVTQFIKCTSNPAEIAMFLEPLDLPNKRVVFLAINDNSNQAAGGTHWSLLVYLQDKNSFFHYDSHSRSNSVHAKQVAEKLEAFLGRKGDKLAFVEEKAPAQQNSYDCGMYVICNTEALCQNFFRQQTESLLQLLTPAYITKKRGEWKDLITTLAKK
It counts as functional.

A short description of assay [7]: HepG2 cell cytotoxicity, dose response, cytotoxicity control for non-replicating M. tuberculosis project (AID 489018). It is filed as functional. The settings on record: Mycobacterium tuberculosis.
The nature of assay [8]: inhibitors of clade B AD8 Env fusion, dose response, cell-based, cherry-pick (AID 652062).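 Also: luciferase signal from cell-cell fusion driven by HIV-1 clade B AD8 Env; potency is for inhibitors of fusion seen as a drop in luminescence.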 It is filed as functional.
A short description of assay [9]: microbe, parasite or virus in culture. It is filed as functional. The settings on record: Mycobacterium tuberculosis.
Assay [10] in a line: THP-1 cell cytotoxicity, dose response, cytotoxicity control for non-replicating M. tuberculosis project (AID 489025). It is filed as functional.
Assay [11] is described as follows: cells. It counts as functional.
Assay [12] in a line: Intein inhibitors as potential Tuberculosis drugs, a cytotoxicity screen. [Related pubchem assays (depositor defined):AID2221, AID2223, AID434968, AID435010, AID449749, AID449750, AID489010]. It counts as functional.
Assay [13] in a line: cytotoxicity in OVCAR4 cells, dose response, cytotoxicity control for PAX8 inhibitor project, cell-based, plate reader, dry powder, SA11 (AID 743150). The settings on record: OVCAR-4. It counts as functional.
A short description of assay [14]: IGROV1 ovarian cancer cell cytotoxicity, dose response, PAX8 inhibitor project, plate reader, dry powder samples (AID 743043). It counts as functional, cell-based. The settings on record: IGROV-1.
Assay [15] is described as follows: PAX2 cell-based inhibition, dose response, selectivity assay for PAX8 inhibitor project, plate reader, dry powder samples (AID 743048).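 Also: HEK293 cells carrying a WT1 promoter luciferase reporter driven by expressed Pax2; potency is for inhibition of Pax2 driven reporter signal.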 It is filed as functional.
The nature of assay [16]: cytotoxicity dependent on PAX8, dose response, cell-based, plate reader, dry powder (AID 743049). It is filed as functional.
Assay [17] can be described thus: HepG2 cell cytotoxicity, dose response, cytotoxicity control for Shn3 inhibitor project, CellTiter-Glo, cherry-picked (AID 624134). It counts as functional, cell-based. On the technique in general: ATP-based viability assays read luminescence as a measure of living cells.
Assay [18] relates to HEK293. Description: cytotoxicity in HEK293T NF-kB-Luc cells, SAR follow-up, cytotoxicity control for NF-kB activator project, cell-based, resazurin fluorescence (AID 493251). It is filed as functional. The settings on record: Homo sapiens.
Assay [19] can be described thus: control 3'UTR Renilla luciferase suppression, dose response, counter-screen for Shn3 inhibitor project, cell-based, Clone20-Shn3RL, cherry-picked (AID 624133). It counts as functional. (In general: A counterscreen serves to expose hits that act by an unwanted route or on another target.)
Assay [20] has as its system HEK293. Description: SAR Analysis of small molecule inhibitors of T-cell specific antigen receptor-induced NF-kB activation in a HEK-293T cell line using a luminescence assay - Set 2. [Related pubchem assays (depositor defined):AID435003, AID435012, AID489026]. It is filed as functional, cell-based. The settings on record: Homo sapiens.
Assay [21] is described as follows: cytotoxicity in OV-90 ovarian cancer cells, dose response, PAX8 inhibitor project, cell-based, plate reader, dry powder, SA8 (AID 743149). It is filed as functional.
Assay [22] is described as follows: cells. It counts as functional, cell-based.
Assay [23] is described as follows: non-specific cell cytotoxicity, dose response, cytotoxicity control for PAX8 inhibitor project, plate reader, dry powder samples (AID 743021). It is filed as functional, cell-based.

Active and inactive are the calls of the source.

Sequence of Paired box protein Pax-8 (Q06710 whole entry): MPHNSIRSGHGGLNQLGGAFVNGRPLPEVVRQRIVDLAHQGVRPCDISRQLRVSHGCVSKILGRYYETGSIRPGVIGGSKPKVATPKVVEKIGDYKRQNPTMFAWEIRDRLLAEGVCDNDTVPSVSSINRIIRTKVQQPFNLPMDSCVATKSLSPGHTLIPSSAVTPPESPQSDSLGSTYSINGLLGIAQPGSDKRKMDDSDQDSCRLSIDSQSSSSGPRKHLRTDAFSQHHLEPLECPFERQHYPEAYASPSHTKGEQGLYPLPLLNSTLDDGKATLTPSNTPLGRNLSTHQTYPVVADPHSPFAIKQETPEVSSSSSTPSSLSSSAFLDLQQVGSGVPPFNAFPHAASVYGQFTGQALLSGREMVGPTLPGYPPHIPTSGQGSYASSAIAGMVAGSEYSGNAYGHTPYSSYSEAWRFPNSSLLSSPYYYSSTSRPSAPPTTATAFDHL
Sequence of Intestinal-type alkaline phosphatase (Homo sapiens, UniProt P09923) (P09923 whole entry): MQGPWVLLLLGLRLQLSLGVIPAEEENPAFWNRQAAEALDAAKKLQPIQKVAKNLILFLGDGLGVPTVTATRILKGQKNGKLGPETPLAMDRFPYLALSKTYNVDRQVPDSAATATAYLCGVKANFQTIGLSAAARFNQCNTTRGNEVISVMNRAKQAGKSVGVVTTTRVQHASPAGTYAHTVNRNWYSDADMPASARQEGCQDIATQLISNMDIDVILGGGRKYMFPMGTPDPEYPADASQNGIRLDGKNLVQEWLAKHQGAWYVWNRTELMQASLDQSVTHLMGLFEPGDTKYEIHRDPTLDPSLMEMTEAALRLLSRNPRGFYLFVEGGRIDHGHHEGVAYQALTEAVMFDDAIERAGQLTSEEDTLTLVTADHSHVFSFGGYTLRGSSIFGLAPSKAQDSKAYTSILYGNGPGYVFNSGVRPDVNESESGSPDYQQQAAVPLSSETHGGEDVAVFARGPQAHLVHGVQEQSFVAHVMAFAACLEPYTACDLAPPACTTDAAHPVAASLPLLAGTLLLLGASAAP
Sequence of Intestinal-type alkaline phosphatase (Mus musculus, UniProt P24822) (P24822 whole entry): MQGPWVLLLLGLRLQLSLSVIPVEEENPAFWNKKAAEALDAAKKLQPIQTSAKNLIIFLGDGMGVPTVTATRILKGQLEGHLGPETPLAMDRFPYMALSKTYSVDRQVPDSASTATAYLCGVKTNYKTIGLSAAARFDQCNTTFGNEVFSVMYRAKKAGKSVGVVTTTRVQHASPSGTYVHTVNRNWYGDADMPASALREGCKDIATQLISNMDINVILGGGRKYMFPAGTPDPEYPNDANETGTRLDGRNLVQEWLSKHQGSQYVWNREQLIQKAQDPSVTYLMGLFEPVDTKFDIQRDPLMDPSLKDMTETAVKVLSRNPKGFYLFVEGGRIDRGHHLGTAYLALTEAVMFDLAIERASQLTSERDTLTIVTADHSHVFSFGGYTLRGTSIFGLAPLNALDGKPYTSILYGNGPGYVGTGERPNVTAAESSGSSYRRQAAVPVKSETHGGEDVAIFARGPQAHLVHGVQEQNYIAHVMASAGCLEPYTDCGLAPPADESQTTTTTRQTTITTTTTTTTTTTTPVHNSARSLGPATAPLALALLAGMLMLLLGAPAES

A word on the AC50: it is the concentration at which the activity in the assay is half-maximal. For `COc1ccc(-n2c3nc4ccccc4nc3c3c(=N)oc(C)nc32)cc1`, the AC50 in [1] is > 20 µM (inactive).
As a reminder, the EC50 is the concentration at which the effect is half-maximal. Usually IC50 stands for the point on the concentration scale where inhibition reaches its midpoint. For `O=C(/C=C/c1cccs1)NC(=S)NNC(=O)c1ccccc1O`, the concentration giving a half-maximal response (EC50) in assay [2] was > 120 µM (not active); in assay [5], 8.8 µM (active). Also, the IC50 in assay [3] was 70.4 µM (active); in assay [4], 109 µM (inactive). The AC50 at Paired box protein Pax-8 is 2.35 µM (active).
For the molecule `O=C(N/N=C1\C/C(=N\NC(=O)c2ccncc2)c2ccccc21)c1ccncc1`, the AC50 in [1] was 4.72 µM (active). For the same molecule, the IC50 in assay [6] was 1.35 µM (active).
As for `CC(=O)N(Cc1ccc(F)cc1)C1=C(NCCc2ccccc2)C(=O)c2ccccc2C1=O`, the CC50 is 5.95 µM (active) in [7], 10.9 µM (active) in [9], 0.67 µM (active) in [10] and 5.56 µM (active) in assay [12]. Further, the AC50 in assay [8] is 8.23 µM (active). Moreover, in the assay “cells [11]”, the IC50 was 3.23 µM (active).
As for `CCCCC(=O)NC(c1ccccc1)c1ccc2cccnc2c1O` (configuration not stated), the concentration at half-maximal activity (AC50) was 9.22 µM (active) in assay [13]; 5.47 µM (active) in assay [14]; 2.15 µM (active) in [15]; 9.11 µM (active) in [16]; 2.44 µM (active) in [17]; 3.24 µM (active) on Paired box protein Pax-8. Further, the values for the AC50 in assay [19], in [21] and in assay [23] were 1.31 µM (active), 3.88 µM (active) and 63.3 µM (active), respectively. Moreover, the IC50 with HEK293 [18] was 10.6 µM (active); in [4], > 118 µM (inactive); in the assay on HEK293 [20], 8.62 µM (active). For the same molecule, the EC50 in “cells [22]” is 7.75 µM (active).
